Assay results as given in the supplement of paper PMC5908809.

What was measured:
[1] = tested on: normal NK cells expanded with K562-aAPC; assay: percent inhibition of viability; higher = more inhibition; conditions: 72 h, IL-2 2.5 ng/mL
Experimental: (§1)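 Drug sensitivity and resistance testing on K562-aAPC-expanded normal NK cells: 5 concentrations (10-fold steps over a 10,000-fold range), 72 h at 37 °C, viability by CellTiter-Glo normalised to DMSO and benzethonium chloride controls; DSS from the fitted curve.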

DERL-7 (IL-2 2.5 ng/mL) [2] = assay: as above; conditions: 72 h
IMC-1 (IL-2 20 ng/mL) [3] = assay: as above; conditions: 72 h
KAI3 (IL-2 2.5 ng/mL) [4] = assay: as above; conditions: 72 h
KHYG-1 (IL-2 2.5 ng/mL) [5] = assay: as above; conditions: 72 h
NK-92 (IL-2 2.5 ng/mL) [6] = assay: as above; conditions: 72 h
NK-YS (IL-2 2.5 ng/mL) [7] = assay: as above; conditions: 72 h
NKL (IL-2 2.5 ng/mL) [8] = assay: as above; conditions: 72 h
SNK-6 (IL-2 2.5 ng/mL) [9] = assay: as above; conditions: 72 h
YT (IL-2 2.5 ng/mL) [10] = assay: as above; conditions: 72 h
[11] = tested on: normal primary NK cells, pool 1 (3 donors) (IL-2 2.5 ng/mL); assay: as above; conditions: 72 h
[12] = tested on: normal primary NK cells, pool 1 (3 donors), resting (IL-2 0 ng/mL); assay: as above; conditions: 72 h
[13] = tested on: normal primary NK cells, pool 2 (3 donors) (IL-2 2.5 ng/mL); assay: as above; conditions: 72 h
[14] = tested on: normal primary NK cells, pool 3 (3 donors) (IL-2 2.5 ng/mL); assay: as above; conditions: 72 h
[15] = tested on: normal NK cells expanded with K562-aAPC; assay: drug sensitivity score (DSS) (DSS units); higher = more sensitive; extreme values may be limits of the assay; conditions: 72 h; IL-2 2.5 ng/mL
Experimental: as §1

DERL-7 (IL-2 2.5 ng/mL) [16] = assay: as above; conditions: 72 h
IMC-1 (IL-2 20 ng/mL) [17] = assay: as above; conditions: 72 h
KAI3 (IL-2 2.5 ng/mL) [18] = assay: as above; conditions: 72 h
KHYG-1 (IL-2 2.5 ng/mL) [19] = assay: as above; conditions: 72 h
NK-92 (IL-2 2.5 ng/mL) [20] = assay: as above; conditions: 72 h
NK-YS (IL-2 2.5 ng/mL) [21] = assay: as above; conditions: 72 h
NKL (IL-2 2.5 ng/mL) [22] = assay: as above; conditions: 72 h
SNK-6 (IL-2 2.5 ng/mL) [23] = assay: as above; conditions: 72 h
YT (IL-2 2.5 ng/mL) [24] = assay: as above; conditions: 72 h
[25] = tested on: normal primary NK cells, pool 1 (3 donors) (IL-2 2.5 ng/mL); assay: as above; conditions: 72 h
[26] = tested on: normal primary NK cells, pool 1 (3 donors), resting (IL-2 0 ng/mL); assay: as above; conditions: 72 h
[27] = tested on: normal primary NK cells, pool 2 (3 donors) (IL-2 2.5 ng/mL); assay: as above; conditions: 72 h
[28] = tested on: normal primary NK cells, pool 3 (3 donors) (IL-2 2.5 ng/mL); assay: as above; conditions: 72 h

CCNC(=O)c1noc(-c2cc(C(C)C)c(O)cc2O)c1-c1ccc(CN2CCOCC2)cc1 [Luminespib] (max concentration tested 1000 nM)
percent inhibition of viability [%]
Conditions | 0.1 nM | 1 nM | 10 nM | 100 nM | 1000 nM
DERL-7 (IL-2 2.5 ng/mL) [2] | 2.4 | 1.89 | 99.7 | 100 | 100
IMC-1 (IL-2 20 ng/mL) [3] | -0.63 | -3.7 | 51.6 | 99.6 | 99.7
KAI3 (IL-2 2.5 ng/mL) [4] | 1.34 | 8.03 | 88.8 | 100 | 97.7
KHYG-1 (IL-2 2.5 ng/mL) [5] | -1.01 | 1.79 | 47.7 | 102 | 99.4
NK-92 (IL-2 2.5 ng/mL) [6] | -9.62 | -1.81 | 66.9 | 97.9 | 95
NK-YS (IL-2 2.5 ng/mL) [7] | -0.03 | 4.35 | 89.3 | 98.7 | 97.7
NKL (IL-2 2.5 ng/mL) [8] | -1.62 | -1.66 | 87.8 | 86.7 | 85.5
SNK-6 (IL-2 2.5 ng/mL) [9] | -5.65 | 9.52 | 35.8 | 85.2 | 87.3
YT (IL-2 2.5 ng/mL) [10] | -1.24 | -3.01 | 7.32 | 89.6 | 92.1
[1] | -2.12 | -2.95 | 97.5 | 97.4 | 97.4
[11] | -3.81 | 5.41 | 76.8 | 82.5 | 86.2
[12] | -4.56 | -1.24 | 21.2 | 46.8 | 48.1
[13] | -11.3 | 0.74 | 74.2 | 74.9 | 76
[14] | -20 | -6.55 | 68.1 | 75.4 | 77.5

Conditions | drug sensitivity score
DERL-7 (IL-2 2.5 ng/mL) [16] | 30.7
IMC-1 (IL-2 20 ng/mL) [17] | 24.3
KAI3 (IL-2 2.5 ng/mL) [18] | 29.8
KHYG-1 (IL-2 2.5 ng/mL) [19] | 24
NK-92 (IL-2 2.5 ng/mL) [20] | 25.4
NK-YS (IL-2 2.5 ng/mL) [21] | 29.1
NKL (IL-2 2.5 ng/mL) [22] | 26.9
SNK-6 (IL-2 2.5 ng/mL) [23] | 19.6
YT (IL-2 2.5 ng/mL) [24] | 17.6
[15] | 29.5
[25] | 25.7
[26] | 11.5
[27] | 23.5
[28] | 22.2

NC(=O)c1cccc2cn(-c3ccc([C@@H]4CCCNC4)cc3)nc12 [Niraparib] (max concentration tested 10000 nM)
percent inhibition of viability [%]
Conditions | 1 nM | 10 nM | 100 nM | 1000 nM | 10000 nM
DERL-7 (IL-2 2.5 ng/mL) [2] | 0.54 | 3.15 | 0.76 | 8.32 | 68.3
IMC-1 (IL-2 20 ng/mL) [3] | -4.38 | 1.54 | 3.53 | 17.8 | 95.6
KAI3 (IL-2 2.5 ng/mL) [4] | -1.88 | 8.15 | 4.77 | 19.1 | 78.8
KHYG-1 (IL-2 2.5 ng/mL) [5] | -5.84 | 6.09 | -1.02 | 10.6 | 92.7
NK-92 (IL-2 2.5 ng/mL) [6] | 4.26 | 12 | 8.71 | 15.1 | 92.8
NK-YS (IL-2 2.5 ng/mL) [7] | -10.5 | -0.47 | -4.5 | 25.4 | 94.5
NKL (IL-2 2.5 ng/mL) [8] | -9.92 | 5.83 | 22.1 | 72.4 | 82.9
SNK-6 (IL-2 2.5 ng/mL) [9] | -11.2 | -10.2 | 1.34 | 0.26 | 86.7
YT (IL-2 2.5 ng/mL) [10] | -0.31 | 5.58 | -0.5 | -2.07 | 34
[1] | 0.08 | 1.98 | 2.28 | 18.1 | 32.5
[11] | 6.04 | -0.22 | -4.85 | -8.51 | -4.48
[12] | 1.46 | -12.9 | -7.56 | -30.2 | -19.6
[13] | -5.25 | -5.29 | 0.44 | -5.11 | 2.06
[14] | -3.37 | -7.45 | 1.14 | -2 | 0.09

Conditions | drug sensitivity score
DERL-7 (IL-2 2.5 ng/mL) [16] | 5.15
IMC-1 (IL-2 20 ng/mL) [17] | 8.2
KAI3 (IL-2 2.5 ng/mL) [18] | 7.35
KHYG-1 (IL-2 2.5 ng/mL) [19] | 6.89
NK-92 (IL-2 2.5 ng/mL) [20] | 7.65
NK-YS (IL-2 2.5 ng/mL) [21] | 9.06
NKL (IL-2 2.5 ng/mL) [22] | 16
SNK-6 (IL-2 2.5 ng/mL) [23] | 4.87
YT (IL-2 2.5 ng/mL) [24] | 1.42
[15] | 3.36
[25] | 0
[26] | 0
[27] | 0
[28] | 0

CCOc1cc2ncc(C#N)c(Nc3ccc(F)c(Cl)c3)c2cc1NC(=O)/C=C/CN(C)C [Pelitinib] (max concentration tested 2500 nM)
percent inhibition of viability [%]
Conditions | 0.25 nM | 2.5 nM | 25 nM | 250 nM | 2500 nM
DERL-7 (IL-2 2.5 ng/mL) [2] | -4.83 | -5.06 | 2.43 | 41.3 | 99.9
IMC-1 (IL-2 20 ng/mL) [3] | -0.29 | 1.94 | 3.33 | -17.4 | 99.7
KAI3 (IL-2 2.5 ng/mL) [4] | -6.96 | -4.92 | 1.78 | 40.4 | 84.1
KHYG-1 (IL-2 2.5 ng/mL) [5] | 1.04 | 0.45 | 7.11 | 25.7 | 101
NK-92 (IL-2 2.5 ng/mL) [6] | -0.1 | -2.5 | 13 | 13.8 | 98.3
NK-YS (IL-2 2.5 ng/mL) [7] | 0.78 | -5.84 | 0.53 | -1.43 | 73.7
NKL (IL-2 2.5 ng/mL) [8] | -12.4 | -7.42 | -0.44 | 15.2 | 92.2
SNK-6 (IL-2 2.5 ng/mL) [9] | 29.9 | 30.9 | 23.3 | 32.9 | 95.6
YT (IL-2 2.5 ng/mL) [10] | 4.94 | 2.25 | 8.23 | 7.75 | 51.7
[1] | -1.17 | 1.75 | 2.79 | 36.6 | 99.5
[11] | 3.39 | -4.76 | 4.88 | 39 | 94.2
[12] | 4.48 | -8.29 | 4.76 | 14.7 | 82.3
[13] | -10.8 | 5.08 | 7.69 | 43 | 91.3
[14] | -8.11 | -2.18 | 2.55 | 19.3 | 94.4

Conditions | drug sensitivity score
DERL-7 (IL-2 2.5 ng/mL) [16] | 10.7
IMC-1 (IL-2 20 ng/mL) [17] | 4.58
KAI3 (IL-2 2.5 ng/mL) [18] | 9.6
KHYG-1 (IL-2 2.5 ng/mL) [19] | 9.44
NK-92 (IL-2 2.5 ng/mL) [20] | 7.76
NK-YS (IL-2 2.5 ng/mL) [21] | 3.95
NKL (IL-2 2.5 ng/mL) [22] | 7.63
SNK-6 (IL-2 2.5 ng/mL) [23] | 16.3
YT (IL-2 2.5 ng/mL) [24] | 4.06
[15] | 10.3
[25] | 9.9
[26] | 6.98
[27] | 10.1
[28] | 8.33
